Read-outs that look alike come from different tables or passages of the source. Blank lines part the entries; values can stand above or below the molecule they belong to.
Assays:
CYP3A4 = system: CYP3A4; parameters: method as in PMID 30301254; settings: statistical significance p < 0.1; cited from earlier work
CYP2A6 [1] = biological target: T1, CYP2A6 (Homo sapiens, UniProt P11509); assay: CYP2A6 enzyme activity, coumarin 7-hydroxylation (MDI, TDI, DI assays), recombinant baculosomes; settings: for Inhibition of CYP2A6 enzyme activity / activity at 30 min, 1 µM: 1 µM flavonoid; for activity at 30 min, 1 µM: human, pH 7.4, probe coumarin (7-hydroxylation), 10 µM, Residual CYP2A6 enzyme activity
T1 sequence (P11509 1-494): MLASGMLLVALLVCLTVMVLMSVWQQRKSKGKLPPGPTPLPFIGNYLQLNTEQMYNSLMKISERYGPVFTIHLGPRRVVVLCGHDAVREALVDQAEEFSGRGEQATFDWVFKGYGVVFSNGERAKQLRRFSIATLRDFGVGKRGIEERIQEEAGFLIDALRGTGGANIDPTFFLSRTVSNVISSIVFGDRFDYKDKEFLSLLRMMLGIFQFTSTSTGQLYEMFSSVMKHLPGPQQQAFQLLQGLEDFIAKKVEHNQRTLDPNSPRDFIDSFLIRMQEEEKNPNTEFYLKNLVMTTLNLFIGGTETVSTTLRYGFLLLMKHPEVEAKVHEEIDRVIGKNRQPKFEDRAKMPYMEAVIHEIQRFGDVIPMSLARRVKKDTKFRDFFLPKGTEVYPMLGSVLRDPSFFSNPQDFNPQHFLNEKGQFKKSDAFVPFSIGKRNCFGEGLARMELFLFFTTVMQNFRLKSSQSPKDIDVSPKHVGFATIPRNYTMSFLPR
Method: (§1) The recombinant baculosomes with hyperexpressed cytochromes P450 (1A2, 2A6, 2C8, and 2D6) and coexpressed NADPH cytochrome P450 reductase and cytochrome b5 were used as a source of enzyme. Baculosomes were commercially obtained from Thermo Fisher Scientific (Waltham, MA, USA), and all other chemicals from Sigma-Aldrich if not otherwise indicated. A 1.0 M solution phosphate buffer of pH 7.4 was prepared in house. NADPH generating system was prepared of 0.1 M glucose-6-phosphate, 10 mg mL^−1 NADP^+, and 1000 IU mL^−1 glucose-6-phosphate dehydrogenase in ratio 100:50:2 (v/v/v).
The aromatic hydroxylation of coumarin at the position 7 was used as a marker reaction for CYP2A6. The incubation conditions were the same as for CYP1A2 enzyme (vide supra) unless otherwise stated. The final concentration of coumarin was 10 µM, while the incubation time was extended to 30 min.
HPLC-DAD analysis was conducted on the same system as the CYP1A2 enzyme with the following modifications: The gradient timetable (t/min, %B) was (0, 20), (1.5, 20), (10, 70), (11, 20), (17, 20), and the detection wavelength was 330 nm. The retention time of the substrate (coumarin) was 7.5 min, while the product (7-hydroxycoumarin) was detected at 4.8 min. The amount of generated product was determined as the area under the curve based on the calibration curve of the standard.
(§2) Three types of experiments were conducted to determine metabolism dependent inhibition, time dependent inhibition, and direct inhibition of CYP1A2, CYP2A6, CYP2C8, and CYP2D6 enzymes.
(§3) To determine metabolism dependent inhibition (MDI assay), the flavonoid was first preincubated with the enzyme with the addition of the generating system for 30 min, after which the marker substrate was added to determine residual enzyme activity (as described above for each enzyme).
(§4) If metabolism dependent inhibition was determined, time dependent inhibition and direct inhibition were tested. Time dependent inhibition (TDI assay) was assessed by preincubating the flavonoid and enzyme, without the generating system, after which residual activity was determined by adding the NADPH generating system along with the substrate (as described above for each enzyme).
(§5) The direct inhibition assay (DI assay) was conducted without preincubation, i.e., the NADPH generating system was added to the incubation mixture containing flavonoid and substrate following the experimental set-up described above for each individual cytochrome P450 enzyme.
(§6) Pure time dependent inhibitors require time to interact with the enzyme. Thus, TDI inhibitors will show a reduction of enzyme activity in assays with preincubations, i.e., the MDI and TDI assays, but not in the DI assay (no preincubation). […] DI inhibitors will reduce enzyme activity in all three assays (MDI, TDI, and DI).
(§7) All incubations were conducted in triplicate. The results are expressed as the residual activity of the enzyme, i.e., the percentage of product generated in incubation with the addition of flavonoid in ratio to the control without flavonoid. The statistical significance was tested with Student’s t-test in the program R (The R Project for Statistical Computing, Vienna, Austria).

CYP2A6 [2] = settings: ref 31 (Boonruanga et al.), cited from earlier work
CYP2C8 = biological target: T2, CYP2C8 (Homo sapiens, UniProt P10632); assay: CYP2C8 enzyme activity, paclitaxel 6α-hydroxylation (MDI, TDI, DI assays), recombinant baculosomes; assay type: biochemical; settings: for Inhibition of CYP2C8 paclitaxel 6-α-hydroxylation / CYP2C8 enzyme activity in the TDI assay: 1 µM flavonoid; for Type of CYP2C8 inhibition: concluded from MDI, TDI, DI assays at 1 µM
T2 construct: purchased Thermo Fisher Scientific; host or cells: baculosomes
T2 sequence (P10632 1-490): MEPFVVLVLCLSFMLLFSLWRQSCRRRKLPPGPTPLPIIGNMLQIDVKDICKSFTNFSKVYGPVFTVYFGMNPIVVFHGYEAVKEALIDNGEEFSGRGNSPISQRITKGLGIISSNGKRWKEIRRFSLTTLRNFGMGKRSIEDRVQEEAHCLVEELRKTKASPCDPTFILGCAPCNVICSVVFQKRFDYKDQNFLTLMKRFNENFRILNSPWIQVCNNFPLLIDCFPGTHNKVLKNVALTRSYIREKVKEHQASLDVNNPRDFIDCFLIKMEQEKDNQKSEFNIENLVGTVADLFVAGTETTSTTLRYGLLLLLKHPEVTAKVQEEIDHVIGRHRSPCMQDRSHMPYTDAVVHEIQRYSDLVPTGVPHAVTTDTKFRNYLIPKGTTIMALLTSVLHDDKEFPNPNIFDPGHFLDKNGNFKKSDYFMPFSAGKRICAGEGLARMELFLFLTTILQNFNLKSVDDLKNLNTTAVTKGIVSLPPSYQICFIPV
Method: as §1
Paclitaxel 6α-hydroxylation was used as a marker reaction for monitoring CYP2C8 enzyme activity (Figure 2). The incubation conditions were the same as for CYP1A2 enzyme (vide supra) unless otherwose stated. The final concentration of paclitaxel was 20 µM, while the incubation time was set to 30 min.
HPLC-DAD analysis was conducted on the same system as the CYP1A2 enzyme with the following modifications: The gradient timetable (t/min, %B) was (0, 50), (2, 50), (10, 90), (11, 50), (17, 50), and the detection wavelength was 227 nm. […] The amount of generated product was determined as the area under the curve based on the calibration curve of the standard.
as §2, §3, §4, §5, §6, §7

CYP1A2 [3] = system: CYP1A2; parameters: method as in ref 25 (Kim et al.); settings: recombinant cytochrome P450 system; ref 25 (Kim et al.); cited from earlier work
rat liver microsomes = system: rat liver microsomes; parameters: method as in ref 24 (Siess et al.); settings: ref 24 (Siess et al.), cited from earlier work
CYP1A2 [4] = biological target: T3, CYP1A2 (Homo sapiens, UniProt P05177); assay: CYP1A2 enzyme activity, phenacetin O-deethylation (MDI, TDI, DI assays), recombinant baculosomes; settings: for activity at 15 min, 1 µM: human, pH 7.4, probe phenacetin (O-deethylation), 150 µM
T3 sequence (P05177 1-516): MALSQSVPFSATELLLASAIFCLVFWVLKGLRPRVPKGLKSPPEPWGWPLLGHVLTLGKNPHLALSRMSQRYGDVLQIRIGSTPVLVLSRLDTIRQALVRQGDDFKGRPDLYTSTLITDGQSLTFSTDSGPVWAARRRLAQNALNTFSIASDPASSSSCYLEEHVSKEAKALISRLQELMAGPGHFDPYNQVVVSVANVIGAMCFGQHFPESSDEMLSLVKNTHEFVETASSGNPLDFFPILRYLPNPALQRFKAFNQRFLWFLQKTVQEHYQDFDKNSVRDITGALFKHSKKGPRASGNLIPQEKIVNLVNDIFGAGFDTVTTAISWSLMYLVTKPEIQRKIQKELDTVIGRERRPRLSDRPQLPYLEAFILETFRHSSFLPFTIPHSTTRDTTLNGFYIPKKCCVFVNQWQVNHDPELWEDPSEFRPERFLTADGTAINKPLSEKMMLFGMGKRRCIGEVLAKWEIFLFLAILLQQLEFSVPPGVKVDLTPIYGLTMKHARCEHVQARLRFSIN
Method: as §1
Phenacetine O-deethylation was used as a marker reaction for monitoring CYP1A2 enzyme activity (Figure 2). Incubations of 100 µL were conducted at the temperature of 37 °C. The pH of the incubation mixture was set at 7.4 using a potassium phosphate buffer (final concentration 50 mM). The total amount of CYP1A2 enzyme was 5 pmol, and the final concentration of substrate was 150 µM. Residual activity was determined by incubating the flavonoid (1 µM) with phenacetine as a substrate for 15 min, with or without preincubation, depending of the type of inhibition assay. Reactions were started by the addition of 15 µL of NADPH generating system, while the reactions were stopped by the addition of 1 mL 1% formic acid in acetonitrile. After centrifugation (10 min, 1900× g), the clear solution was transferred to a vial for HPLC analysis.
HPLC analysis was performed on Agilent 1100 instrument (Santa Clara, CA, USA) coupled with a diode array detector (DAD) on Luna C18 column (4.6 × 150 mm, 3 μm). The gradient method was used for separation. Mobile phase A consisted of water, acetonitrile, and glacial acetic acid in the volume ratio of 90:10:0.1, while mobile phase B contained the same solvents in the ratio 10:90:0.1. The following gradient timetable was used (t/min, %B): (0, 0), (2, 0), (13, 55), (14, 0), (20, 0). The flow rate was 1 mL/min, and chromatograms were recorded at 254 nm. Volume of incubation injected to the column was 15 µL. […] The amount of generated product (acetaminophen) was determined as the area under the curve based on the calibration curve of the standard.
as §2, §3, §4, §5, §6
All incubations were conducted in triplicate. The results are expressed as the residual activity of the enzyme, i.e., the percentage of product generated in incubation with the addition of flavonoid in ratio to the control without flavonoid.

CYP1A2 [5] = system: CYP1A2; parameters: method as in ref 23 (Lee et al.); settings: ref 23 (Lee et al.); cited from earlier work
[6] = concluded from MDI, TDI, DI assays at 1 µM

SMILES: COc1ccc(-c2cc(=O)c3c(O)cc(O)cc3o2)cc1 [acacetin]
Inhibition of CYP3A4 metabolic activity (CYP3A4): inhibition

SMILES: O=c1cc(-c2ccc(O)cc2)oc2cc(O)cc(O)c12 [apigenin]
Inhibition of CYP2A6 enzyme activity (CYP2A6 [1]): inhibited
activity at 30 min, 1 µM (CYP2A6 [1]; direct inhibition (DI) assay): 48 ± 1%
activity at 30 min, 1 µM (CYP2A6 [1]; metabolism dependent inhibition (MDI) assay, coumarin 10 µM): 47 ± 7%
IC50 (CYP2A6 [2]; read-out: IC50, direct inhibition assay): 900 ± 70 nM
IC50 (CYP2A6 [2]; read-out: IC50, metabolism dependent inhibition assay): 770 ± 160 nM

Inhibition of CYP2C8 paclitaxel 6-α-hydroxylation (CYP2C8): inhibition
SMILES: COc1cc(OC)c2c(=O)cc(-c3ccccc3)oc2c1 [chrysin-dimethylether]
Inhibition of CYP3A4 metabolic activity (CYP3A4): inhibition
CYP2C8 enzyme activity in the TDI assay (CYP2C8): reduction of enzyme activity was not observed
Type of CYP2C8 inhibition (CYP2C8): mixed reversible and irreversible inhibitors

Inhibition of CYP2C8 paclitaxel 6-α-hydroxylation (CYP2C8): inhibition
Inhibition of CYP1A2 activity (CYP1A2 [4]; 1 µM flavonoid): inhibited
Residual CYP1A2 enzyme activity, time dependent inhibition (TDI) assay (CYP1A2 [4]; 1 µM flavonoid, preincubation without generating system): complete inhibition
Type of CYP1A2 inhibition (CYP1A2 [4]; [6]): reversible
activity at 15 min, 1 µM (CYP1A2 [4]): 18 ± 4%
activity at 15 min, 1 µM (CYP1A2 [4]; Residual CYP1A2 enzyme activity, direct inhibition (DI) assay, 1 µM flavonoid, no preincubation): 23 ± 6%
SMILES: O=c1cc(-c2ccccc2)oc2cc(O)cc(O)c12 [chrysin]
Type of CYP1A2 inhibition, ethoxyresorufin O-deethylation (CYP1A2 [3]): reversible mix inhibition
Type of inhibition of ethoxy- and pentoxy-resorufin dealkylation (rat liver microsomes): mix type reversible
Inhibition of CYP3A4 metabolic activity (CYP3A4): inhibition
CYP2C8 enzyme activity in the TDI assay (CYP2C8): reduction of enzyme activity was not observed
Type of CYP2C8 inhibition (CYP2C8): mixed reversible and irreversible inhibitors
Type of CYP1A2 inhibition, N3-demethylation of caffeine (CYP1A2 [5]): reversible, competitive inhibition

SMILES: O=c1cc(-c2ccccc2)oc2ccccc12 [flavone]
Inhibition of CYP3A4 metabolic activity (CYP3A4): inhibition

Inhibition of CYP2A6 enzyme activity (CYP2A6 [1]): inhibited
Inhibition of CYP2C8 paclitaxel 6-α-hydroxylation (CYP2C8): inhibition
SMILES: O=c1c(O)c(-c2ccccc2)oc2cc(O)cc(O)c12 [galangin]
Inhibition of CYP3A4 metabolic activity (CYP3A4): inhibition
CYP2C8 enzyme activity in the TDI assay (CYP2C8): reduction of enzyme activity was not observed
Type of CYP2C8 inhibition (CYP2C8): mixed reversible and irreversible inhibitors

SMILES: COc1ccc([C@@H]2CC(=O)c3c(O)cc(O)cc3O2)cc1O [hesperetin]
Inhibition of CYP3A4 metabolic activity (CYP3A4): inhibition

Inhibition of CYP1A2 activity (CYP1A2 [4]; 1 µM flavonoid): inhibited
SMILES: O=c1c(O)c(-c2ccc(O)cc2O)oc2cc(O)cc(O)c12 [morin]
Inhibition constant relative to chrysin (rat liver microsomes; morin versus chrysin): 16 fold
Ki (rat liver microsomes; read-out: Inhibition constant, ethoxy- and pentoxy-resorufin dealkylation): 5 µM
Type of inhibition of ethoxy- and pentoxy-resorufin dealkylation (rat liver microsomes): mix type reversible
Inhibition of CYP3A4 metabolic activity (CYP3A4): inhibition

SMILES: O=C1C[C@@H](c2ccccc2)Oc2cc(O)cc(O)c21 [pinocembrin]
Inhibition of CYP3A4 metabolic activity (CYP3A4): inhibition

SMILES: COc1ccc(-c2oc3cc(O)cc(O)c3c(=O)c2O)cc1O [tamarixetin]
Inhibition of CYP3A4 metabolic activity (CYP3A4): inhibition

Inhibition of CYP2A6 enzyme activity (CYP2A6 [1]): inhibited
Type of CYP2A6 inhibition (CYP2A6 [1]; [6]): direct inhibitor
SMILES: COc1ccc(-c2cc(=O)c3c(OC)c(OC)c(OC)c(OC)c3o2)cc1 [tangeretin]
Inhibition of CYP3A4 metabolic activity (CYP3A4): inhibition

From PMC6749521, “The Effect of Flavonoid Aglycones on the CYP1A2, CYP2A6, CYP2C8 and CYP2D6 Enzymes Activity” (Molecules, 2019)
